Measurements: patent US9889094B2, “Particle size reduction of an antimuscarinic compound” (CHIESI FARMACEUTICI S.p.A., priority 2013, dated 2018)
Read-outs that look alike come from different tables or passages of the source.

Key:
[1] = Scanning Electron Microscopy (SEM) of particles; type: physicochemical; conditions: after the homogenization step, Example 1 (2H,3H-decafluoropentane); platelet-like particles
[2] = Specific surface area by BET nitrogen adsorption; type: physicochemical; conditions: Example 1 powder; for BET SSA: storage 22±2° C., 60% relative humidity
Protocol: Advantageously, the specific surface area of the obtained particles upon drying and sieving, is from to 8 m^2/g, advantageously from to 7 m^2/g, preferably from 3 to 6 m^2/g. The Specific Surface Area is determined by Brunauer-Emmett-Teller (BET) nitrogen adsorption method according to a procedure known in the art.
Alternatively, the physical stability may be measured using the specific surface area of the drug particles analysed by adsorption analysis, BET surface measurement, according to a method known to the skilled person.
Specific surface area (SSA) of the dried and sieved particles, analyzed by BET nitrogen adsorption method, was determined to be of about 4.3 m^2/g.

[3] = Crystallinity / polymorphic form by DVS; type: physicochemical; conditions: Example 4 final product (dichloromethane) compared to the initial coarse drug
[4] = Drying and re-dispersion after wet bead milling in acetone (comparative example); type: physicochemical; conditions: wet bead milled in acetone, 200 rpm, 60 minutes; dried at 25° C. under low vacuum; white to off-white solid cake
Protocol: The vessel was sealed and the suspension homogenized into the planetary mill apparatus disclosed in WO 2007/020407, which is incorporated herein by reference in its entirety, at a disc speed of 200 rpm for 60 minutes at ambient temperature and pressure. After 60 minutes, the resulting drug suspension is separated from the milling media by filtering through a nylon mesh and the resulting drug suspension loaded into a drying tray.

[5] = Crystallinity / polymorphic form by X-ray powder diffraction and DSC; type: physicochemical; conditions: for XRD: Example 1 powder, storage 22±2° C., 60% relative humidity
[6] = Example 1 powder (2H,3H-decafluoropentane), storage 22±2° C., 60% relative humidity, time 0
[7] = Example 1 powder, storage 22±2° C., 60% relative humidity, 1 W
[8] = Example 1 powder, storage 22±2° C., 60% relative humidity, 2 W
[9] = Example 1 powder, storage 22±2° C., 60% relative humidity, 3 M
[10] = Example 1 powder, storage 22±2° C., 60% relative humidity, 4 W
[11] = Example 4 powder (dichloromethane), time 0
[12] = Example 5 powder (perfluoroheptane isomer mixture), 45 minutes processing, time 0

C[N+]1(C)CCC(OC(=O)C(O)(c2ccccc2)C2CCCC2)C1 (racemic) [rac-glycopyrronium bromide, (3S,2′R), (3R,2′S)-3-[(cyclopentylhydroxyphenylacetyl)oxy]-1,1-dimethylpyrrolidinium bromide]
average particle size by SEM [1]: below 5 μm
Specific surface area (SSA) ([2]; dried and sieved particles): about 4.3 m^2/g
BET SSA ([2]; 1 W): 4.198 m^2/g
BET SSA ([2]; 2 W): 4.210 m^2/g
BET SSA ([2]; 3 M): 4.00 m^2/g
BET SSA ([2]; 4 W): 4.086 m^2/g
BET SSA ([2]; time 0): 4.326 m^2/g
change in degree of crystallinity or polymorphic form (DVS) [3]: no change in degree of crystallinity or polymorphic form
PSD d(v0.1) [6]: 0.71
PSD d(v0.5) [6]: 1.85
PSD d(v0.9) [6]: 4.77
d(v0.5) (Example 1 powder after micronization and drying (2H,3H-decafluoropentane)): 1.85 μm
change of particle size upon storage (Example 1 powder, storage 22±2° C., 60% relative humidity, up to 3 months): does not significantly change
PSD d(v0.1) [7]: 0.72
PSD d(v0.5) [7]: 1.92
PSD d(v0.9) [7]: 5.03
PSD d(v0.1) [8]: 0.72
PSD d(v0.5) [8]: 1.88
PSD d(v0.9) [8]: 4.95
PSD d(v0.1) [9]: 0.75
PSD d(v0.5) [9]: 2.07
PSD d(v0.9) [9]: 5.26
PSD d(v0.1) [10]: 0.72
PSD d(v0.5) [10]: 1.93
PSD d(v0.9) [10]: 4.97
PSD d(v0.1) [11]: 0.80
PSD d(v0.5) [11]: 2.06
PSD d(v0.9) [11]: 6.46
d(v0.5) (Example 4 powder after micronization and drying (dichloromethane)): 2.06 μm
PSD d(v0.1) [12]: 0.66
PSD d(v0.5) [12]: 1.70
PSD d(v0.9) [12]: 4.31
re-dispersibility of dried product [4]: could not be re-dispersed under mechanical agitation
change in degree of crystallinity or polymorphic form (XPRD and DSC) ([5]; Example 1 final product compared to the initial coarse drug): no change in degree of crystallinity or polymorphic form
XRD ([5]; 4 W): Crystalline
XRD ([5]; time 0): Crystalline
